# Legend:
# [1] = target: T1, Ceramide glucosyltransferase (Homo sapiens, UniProt Q16739)
# T1 sequence (Q16739 whole entry): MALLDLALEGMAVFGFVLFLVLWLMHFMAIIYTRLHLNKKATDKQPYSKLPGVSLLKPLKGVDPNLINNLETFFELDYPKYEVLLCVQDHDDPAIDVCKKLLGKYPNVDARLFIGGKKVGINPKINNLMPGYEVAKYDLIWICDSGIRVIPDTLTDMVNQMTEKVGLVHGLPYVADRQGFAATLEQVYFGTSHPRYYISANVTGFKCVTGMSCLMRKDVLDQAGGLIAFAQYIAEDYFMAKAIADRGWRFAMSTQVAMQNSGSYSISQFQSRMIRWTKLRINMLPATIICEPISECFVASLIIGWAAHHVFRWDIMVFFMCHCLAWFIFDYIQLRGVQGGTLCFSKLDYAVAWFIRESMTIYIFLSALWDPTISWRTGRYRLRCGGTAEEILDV
# [2] = target: T2, Lysosomal acid glucosylceramidase (Homo sapiens, UniProt P04062)
# T2 sequence (P04062 whole entry): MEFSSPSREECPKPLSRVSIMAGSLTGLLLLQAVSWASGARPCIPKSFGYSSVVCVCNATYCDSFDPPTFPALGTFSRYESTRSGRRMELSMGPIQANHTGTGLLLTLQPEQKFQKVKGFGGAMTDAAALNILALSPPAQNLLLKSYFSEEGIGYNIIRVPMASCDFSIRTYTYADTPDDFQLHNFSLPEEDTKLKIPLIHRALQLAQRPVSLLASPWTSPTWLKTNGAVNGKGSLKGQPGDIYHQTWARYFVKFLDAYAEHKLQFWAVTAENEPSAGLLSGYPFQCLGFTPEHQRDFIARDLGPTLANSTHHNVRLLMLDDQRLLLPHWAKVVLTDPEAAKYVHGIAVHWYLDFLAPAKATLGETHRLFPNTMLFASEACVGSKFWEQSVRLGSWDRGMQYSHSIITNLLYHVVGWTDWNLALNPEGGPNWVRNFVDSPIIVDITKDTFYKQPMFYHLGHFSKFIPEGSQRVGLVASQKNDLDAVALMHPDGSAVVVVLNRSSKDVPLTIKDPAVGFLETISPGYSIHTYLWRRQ
# Beta-glucosidase = target: T3, Beta-glucosidase (Homo sapiens, UniProt Q9HCG7)
# T3 sequence (Q9HCG7 whole entry): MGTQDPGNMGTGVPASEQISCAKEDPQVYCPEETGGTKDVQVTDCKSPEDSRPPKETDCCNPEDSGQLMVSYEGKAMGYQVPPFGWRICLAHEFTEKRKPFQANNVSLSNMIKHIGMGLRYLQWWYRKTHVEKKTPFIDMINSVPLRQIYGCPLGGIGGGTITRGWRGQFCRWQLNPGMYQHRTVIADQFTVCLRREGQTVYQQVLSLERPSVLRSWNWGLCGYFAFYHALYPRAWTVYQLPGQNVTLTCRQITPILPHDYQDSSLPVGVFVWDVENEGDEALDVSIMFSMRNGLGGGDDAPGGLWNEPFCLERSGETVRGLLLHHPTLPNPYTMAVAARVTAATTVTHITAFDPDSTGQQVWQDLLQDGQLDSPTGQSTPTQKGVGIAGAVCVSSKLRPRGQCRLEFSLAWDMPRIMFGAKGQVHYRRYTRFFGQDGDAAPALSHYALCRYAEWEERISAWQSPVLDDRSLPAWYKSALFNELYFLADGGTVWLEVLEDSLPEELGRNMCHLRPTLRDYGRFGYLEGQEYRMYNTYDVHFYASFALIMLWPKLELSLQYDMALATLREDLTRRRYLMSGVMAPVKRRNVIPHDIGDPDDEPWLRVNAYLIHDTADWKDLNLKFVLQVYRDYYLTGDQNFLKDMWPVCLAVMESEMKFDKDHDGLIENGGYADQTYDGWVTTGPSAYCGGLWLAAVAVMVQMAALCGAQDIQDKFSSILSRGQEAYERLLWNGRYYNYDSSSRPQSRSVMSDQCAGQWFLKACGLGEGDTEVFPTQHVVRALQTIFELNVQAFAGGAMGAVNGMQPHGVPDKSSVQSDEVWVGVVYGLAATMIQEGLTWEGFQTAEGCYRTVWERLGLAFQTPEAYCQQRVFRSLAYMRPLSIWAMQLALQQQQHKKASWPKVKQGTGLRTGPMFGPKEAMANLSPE
# [3] = target: Sucrase-isomaltase, intestinal (Homo sapiens, UniProt P14410); experiment: Inhibition of intestinal sucrase (unknown origin)
# Maltase-glucoamylase = Maltase-glucoamylase (Homo sapiens, UniProt O43451); experiment: Inhibition of intestinal maltase (unknown origin)
# [4] = target: Lactase/phlorizin hydrolase (Homo sapiens, UniProt P09848); experiment: Inhibition of intestinal lactase (unknown origin)
# Sequence of Lactase/phlorizin hydrolase (P09848 869-1927 limits assumed): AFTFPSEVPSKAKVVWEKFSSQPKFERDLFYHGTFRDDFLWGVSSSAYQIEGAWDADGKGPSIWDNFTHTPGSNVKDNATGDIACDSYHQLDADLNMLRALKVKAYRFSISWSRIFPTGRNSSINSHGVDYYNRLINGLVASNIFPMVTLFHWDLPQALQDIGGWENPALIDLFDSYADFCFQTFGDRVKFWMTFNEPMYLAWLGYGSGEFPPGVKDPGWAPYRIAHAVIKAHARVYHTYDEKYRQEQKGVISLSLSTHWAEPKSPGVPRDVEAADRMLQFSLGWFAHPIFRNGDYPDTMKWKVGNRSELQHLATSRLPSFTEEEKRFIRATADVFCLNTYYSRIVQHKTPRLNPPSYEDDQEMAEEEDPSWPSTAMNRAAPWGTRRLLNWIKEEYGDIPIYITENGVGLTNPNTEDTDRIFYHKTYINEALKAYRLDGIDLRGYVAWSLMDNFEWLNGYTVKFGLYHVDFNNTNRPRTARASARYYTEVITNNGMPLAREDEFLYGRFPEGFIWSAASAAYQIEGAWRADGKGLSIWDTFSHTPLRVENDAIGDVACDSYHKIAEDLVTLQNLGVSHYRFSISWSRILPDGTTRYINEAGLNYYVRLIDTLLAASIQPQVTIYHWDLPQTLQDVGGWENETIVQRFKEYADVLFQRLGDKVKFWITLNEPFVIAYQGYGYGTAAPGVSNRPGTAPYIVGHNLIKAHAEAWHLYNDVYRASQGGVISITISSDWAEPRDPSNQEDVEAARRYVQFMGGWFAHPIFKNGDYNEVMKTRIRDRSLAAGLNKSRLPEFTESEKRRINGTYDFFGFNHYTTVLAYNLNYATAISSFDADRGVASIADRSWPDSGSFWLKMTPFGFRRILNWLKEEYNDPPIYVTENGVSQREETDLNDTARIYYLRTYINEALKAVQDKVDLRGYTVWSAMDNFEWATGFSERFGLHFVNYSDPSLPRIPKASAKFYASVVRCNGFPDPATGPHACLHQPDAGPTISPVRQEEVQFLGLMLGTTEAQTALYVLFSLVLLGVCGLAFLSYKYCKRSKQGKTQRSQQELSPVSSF
# Sequence of Sucrase-isomaltase, intestinal (P14410 2-1007 limits assumed): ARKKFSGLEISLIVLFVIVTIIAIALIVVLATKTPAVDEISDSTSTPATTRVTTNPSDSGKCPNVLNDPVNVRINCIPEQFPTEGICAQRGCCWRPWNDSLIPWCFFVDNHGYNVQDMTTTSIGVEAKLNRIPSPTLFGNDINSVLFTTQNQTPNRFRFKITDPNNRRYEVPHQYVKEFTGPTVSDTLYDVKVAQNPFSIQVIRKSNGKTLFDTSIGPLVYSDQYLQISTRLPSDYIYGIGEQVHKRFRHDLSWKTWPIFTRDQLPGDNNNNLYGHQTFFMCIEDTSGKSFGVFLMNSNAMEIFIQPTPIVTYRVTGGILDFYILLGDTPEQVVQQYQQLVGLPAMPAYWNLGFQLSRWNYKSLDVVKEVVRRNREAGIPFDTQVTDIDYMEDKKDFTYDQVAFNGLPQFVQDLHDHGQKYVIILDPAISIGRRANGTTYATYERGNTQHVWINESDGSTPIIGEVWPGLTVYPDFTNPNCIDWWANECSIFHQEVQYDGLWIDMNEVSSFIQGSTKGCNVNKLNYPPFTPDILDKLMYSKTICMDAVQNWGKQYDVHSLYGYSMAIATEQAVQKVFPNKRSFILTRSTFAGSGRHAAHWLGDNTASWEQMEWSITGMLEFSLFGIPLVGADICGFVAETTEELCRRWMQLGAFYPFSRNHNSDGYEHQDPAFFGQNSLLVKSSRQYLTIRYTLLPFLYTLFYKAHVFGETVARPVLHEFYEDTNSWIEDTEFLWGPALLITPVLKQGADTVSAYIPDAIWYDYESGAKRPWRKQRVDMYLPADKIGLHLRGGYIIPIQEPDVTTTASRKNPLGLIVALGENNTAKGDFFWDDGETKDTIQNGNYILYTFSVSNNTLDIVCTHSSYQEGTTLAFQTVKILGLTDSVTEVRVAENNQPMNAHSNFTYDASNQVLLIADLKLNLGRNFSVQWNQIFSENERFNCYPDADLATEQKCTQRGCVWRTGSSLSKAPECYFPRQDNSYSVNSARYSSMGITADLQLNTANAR
# Sequence of Sucrase-isomaltase, intestinal (P14410 1008-1827 limits assumed): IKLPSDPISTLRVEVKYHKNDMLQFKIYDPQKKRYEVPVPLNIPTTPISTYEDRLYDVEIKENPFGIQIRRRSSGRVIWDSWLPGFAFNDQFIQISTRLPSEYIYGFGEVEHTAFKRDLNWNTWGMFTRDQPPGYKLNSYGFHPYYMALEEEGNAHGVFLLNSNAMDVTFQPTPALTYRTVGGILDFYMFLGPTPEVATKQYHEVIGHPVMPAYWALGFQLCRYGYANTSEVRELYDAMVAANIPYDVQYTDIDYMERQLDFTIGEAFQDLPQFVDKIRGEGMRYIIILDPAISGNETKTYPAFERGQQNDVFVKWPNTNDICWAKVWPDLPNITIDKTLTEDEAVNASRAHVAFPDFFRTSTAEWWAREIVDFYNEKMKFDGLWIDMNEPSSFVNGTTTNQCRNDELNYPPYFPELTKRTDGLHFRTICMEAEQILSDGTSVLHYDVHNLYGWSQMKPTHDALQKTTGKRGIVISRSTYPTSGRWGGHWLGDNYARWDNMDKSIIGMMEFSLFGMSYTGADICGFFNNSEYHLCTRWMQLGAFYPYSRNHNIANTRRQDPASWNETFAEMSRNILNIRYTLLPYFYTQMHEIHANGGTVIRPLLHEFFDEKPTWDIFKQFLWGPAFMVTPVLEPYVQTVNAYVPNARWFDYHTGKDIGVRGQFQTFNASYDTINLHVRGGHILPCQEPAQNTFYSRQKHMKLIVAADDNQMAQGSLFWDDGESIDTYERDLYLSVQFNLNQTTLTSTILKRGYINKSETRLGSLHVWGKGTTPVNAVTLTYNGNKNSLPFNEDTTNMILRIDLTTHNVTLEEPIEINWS
Compound,IC50 [1] [nM],IC50 [2] [nM],IC50 (Beta-glucosidase) [nM],IC50 [3] [nM],IC50 (Maltase-glucoamylase) [nM],IC50 [4] [nM]
O=C(CCCCCN1C[C@H](O)[C@@H](O)[C@H](O)[C@H]1CO)NC12CC3CC(CC(C3)C1)C2,1000,500,9,–,–,–
OC[C@@H]1[C@@H](O)[C@H](O)[C@@H](O)CN1CCCCCOCC1CCCCC1,500,1500,4,–,–,–
OC[C@@H]1[C@@H](O)[C@H](O)[C@@H](O)CN1CCCCCCOCC12CC3CC(CC(C3)C1)C2,300,200,2,–,–,–
CC(C)CCC[C@@H](C)[C@H]1CC[C@H]2[C@@H]3CC=C4C[C@@H](OCCCCCN5C[C@H](O)[C@@H](O)[C@H](O)[C@H]5CO)CC[C@]4(C)[C@H]3CC[C@]12C,1000,500,5,–,–,–
OC[C@@H]1[C@@H](O)[C@H](O)[C@@H](O)CN1CCCCCOCC1C2CC3CC(C2)CC1C3 (stereo partly drawn),300,400,1,–,–,–
OC[C@@H]1[C@@H](O)[C@H](O)[C@@H](O)CN1CCCCCOCc1ccccc1,750,300,1,–,–,–
OC[C@@H]1[C@@H](O)[C@H](O)[C@@H](O)CN1CCCCCOCc1ccc2ccc3cccc4ccc1c2c34,3,500,3,–,–,–
OC[C@H]1[C@@H](O)[C@H](O)[C@@H](O)CN1CCCCCOCC1CCCCC1,70,60000,6,–,–,–
O=C(CCCCCN1C[C@H](O)[C@@H](O)[C@H](O)[C@@H]1CO)NC12CC3CC(CC(C3)C1)C2,400,40000,15,–,–,–
OC[C@H]1[C@@H](O)[C@H](O)[C@@H](O)CN1CCCCCCOCC12CC3CC(CC(C3)C1)C2,250,5000,2.5,–,–,–
CC(C)CCC[C@@H](C)[C@H]1CC[C@H]2[C@@H]3CC=C4C[C@@H](OCCCCCN5C[C@H](O)[C@@H](O)[C@H](O)[C@@H]5CO)CC[C@]4(C)[C@H]3CC[C@]12C,1000,15000,20,–,–,–
OC[C@H]1[C@@H](O)[C@H](O)[C@@H](O)CN1CCCCCOCC1C2CC3CC(C2)CC1C3 (stereo partly drawn),80,10000,2,–,–,–
CC(C)=CCC/C(C)=C/CC/C(C)=C/CCOCCCCCN1C[C@H](O)[C@@H](O)[C@H](O)[C@@H]1CO,2500,50000,100,–,–,–
OC[C@H]1[C@@H](O)[C@H](O)[C@@H](O)CN1CCCCCOCc1ccc2ccc3cccc4ccc1c2c34,3,15000,1,–,–,–
OC[C@@H]1[C@@H](O)[C@H](O)[C@@H](O)CN1CCCCCOCc1ccc(-c2ccc3c(c2)OCCCO3)cc1,–,–,15,–,–,–
OC[C@@H]1[C@@H](O)[C@H](O)[C@@H](O)CN1CCCCCOCc1ccccc1-c1ccccc1,–,–,–,200,1500,17000
OC[C@@H]1[C@@H](O)[C@H](O)[C@@H](O)CN1CCCCCOCc1ccc(-c2ccccc2)cc1C(F)(F)F,–,–,–,1500,8000,50000
OC[C@@H]1[C@@H](O)[C@H](O)[C@@H](O)CN1CCCCCOCc1ccc(-c2ccccc2)c(C(F)(F)F)c1,–,–,0.08,1250,7000,45000
C[C@H](OCCCCCN1C[C@H](O)[C@@H](O)[C@H](O)[C@@H]1CO)c1ccc(-c2ccccc2)cc1,–,–,–,> 100000,> 100000,> 100000
C[C@@H](OCCCCCN1C[C@H](O)[C@@H](O)[C@H](O)[C@@H]1CO)c1ccc(-c2ccccc2)cc1,–,–,–,> 100000,> 100000,45000
OC[C@H]1[C@@H](O)[C@H](O)[C@@H](O)CN1CCCCCOCc1ccccc1-c1ccccc1,–,–,–,95000,> 100000,25000
OC[C@H]1[C@@H](O)[C@H](O)[C@@H](O)CN1CCCC(F)(F)COCc1ccc(-c2ccccc2)cc1,–,–,–,> 100000,> 100000,80000
OC[C@H]1[C@@H](O)[C@H](O)[C@@H](O)CN1CCCCCOCc1ccc(-c2ccccc2)cc1C(F)(F)F,–,–,–,> 100000,> 100000,125000
OC[C@H]1[C@@H](O)[C@H](O)[C@@H](O)CN1CCCCCOCc1ccc(-c2ccccc2)c(C(F)(F)F)c1,–,–,–,> 100000,> 100000,100000

# Other lines, results leading:
IC50 [1] [nM],IC50 [2] [nM],IC50 (Beta-glucosidase) [nM],IC50 [3] [nM],IC50 (Maltase-glucoamylase) [nM],IC50 [4] [nM],Compound
3,1000,1,–,–,–,OC[C@@H]1[C@@H](O)[C@H](O)[C@@H](O)CN1CCCCCOCc1ccc2ccccc2c1
–,–,–,250,2000,–,OC[C@@H]1[C@@H](O)[C@H](O)[C@@H](O)CN1CCCCCOCc1ccc(-c2ccccc2)cc1
200,10000,3,–,–,–,OC[C@H]1[C@@H](O)[C@H](O)[C@@H](O)CN1CCCCCOCc1ccccc1
3,50000,1,–,–,–,OC[C@H]1[C@@H](O)[C@H](O)[C@@H](O)CN1CCCCCOCc1ccc2ccccc2c1
–,–,–,70000,> 100000,–,OC[C@H]1[C@@H](O)[C@H](O)[C@@H](O)CN1CCCCCOCc1ccc(-c2ccccc2)cc1
–,–,3,–,–,–,COc1ccccc1-c1ccc(COCCCCCN2C[C@H](O)[C@@H](O)[C@H](O)[C@H]2CO)cc1
–,–,1,–,–,–,OC[C@@H]1[C@@H](O)[C@H](O)[C@@H](O)CN1CCCCCOCc1ccc(-c2cccc(F)c2)cc1
75,–,–,–,–,–,OC[C@@H]1[C@@H](O)[C@H](O)[C@@H](O)CN1CCCCCOCc1ccc(-c2ccccc2F)cc1
–,500,2,–,–,–,OC[C@@H]1[C@@H](O)[C@H](O)[C@@H](O)CN1CCCCCOCc1ccc(-c2ccc3c(c2)OCO3)cc1
40,250,30,–,–,–,OC[C@@H]1[C@@H](O)[C@H](O)[C@@H](O)CN1CCCCCOCc1ccc(-c2ccc3c(c2)OCCO3)cc1
2000,–,–,–,–,–,OC[C@@H]1[C@@H](O)[C@H](O)[C@@H](O)CN1CCCCCOCc1ccc(-c2cccnc2)cc1
2000,10000,25,–,–,–,OC[C@@H]1[C@@H](O)[C@H](O)[C@@H](O)CN1CCCCCOCc1ccc(-c2cncnc2)cc1
–,–,–,200,1500,20000,OC[C@@H]1[C@@H](O)[C@H](O)[C@@H](O)CN1CCCCCOCc1cccc(-c2ccccc2)c1
–,–,0.08,250,2500,30000,OC[C@@H]1[C@@H](O)[C@H](O)[C@@H](O)CN1CCCCCOCc1ccc(-c2ccccc2)cc1F
–,–,0.08,400,3000,20000,OC[C@@H]1[C@@H](O)[C@H](O)[C@@H](O)CN1CCCCCOCc1ccc(-c2ccccc2)c(F)c1
–,–,–,> 100000,> 100000,60000,OC[C@H]1[C@@H](O)[C@H](O)[C@@H](O)CN1CCCCCOCc1ccc(-c2ccccc2)cc1F
–,–,–,> 100000,> 100000,50000,OC[C@H]1[C@@H](O)[C@H](O)[C@@H](O)CN1CCCCCOCc1ccc(-c2ccccc2)c(F)c1 [NIZUBAGLUSTAT]

# Source: ChEMBL document CHEMBL3352260, “Identification and development of biphenyl substituted iminosugars as improved dual glucosylceramide synthase/neutral glucosylceramidase inhibitors” (J Med Chem, 2014)
